We go through four compounds from patent publication US11786535B1, “Methods of inhibiting cyclooxygenase” (KING FAISAL UNIVERSITY, priority 2023, dated 2023).

The target in experiment [1] is COX-2 (Homo sapiens (Human), UniProt P35354). Description: COX inhibitor screening assay kit, COX-2. In kind it is biochemical. The settings on record: for SI (selectivity index): calculated from COX-1 and COX-2 IC50; for IC50: three separate experiments. How it is done: (§1) In test tubes, 25 mM Tris-HCl, pH 8.0, containing 5 mM EDTA, phenol, and 1 mM hematin was added. The test compounds were dissolved in DMSO and added in concentrations ranging from […] Dimethyl sulfoxide alone was applied to control test containers. COX-1 or COX-2 enzymes were added to the test tubes, which were then preincubated for 10 minutes at 37° C. The arachidonic acid substrate was added, and the tubes were further incubated at 37° C. for 2 minutes. The compound's immunochemical assay was used to calculate the amount of prostaglandin produced.
(§2) Three separate experiments were used to calculate the IC50 values. The selectivity index was calculated as follows: […]

Experiment [2] has as its target COX-1 (Ovis aries, UniProt P05979). The experiment can be described thus: COX inhibitor screening assay kit, COX-1. The settings on record: three separate experiments. In kind it is biochemical. How it is done:
as §1, §2

Chain of COX-2 (P35354 18-604): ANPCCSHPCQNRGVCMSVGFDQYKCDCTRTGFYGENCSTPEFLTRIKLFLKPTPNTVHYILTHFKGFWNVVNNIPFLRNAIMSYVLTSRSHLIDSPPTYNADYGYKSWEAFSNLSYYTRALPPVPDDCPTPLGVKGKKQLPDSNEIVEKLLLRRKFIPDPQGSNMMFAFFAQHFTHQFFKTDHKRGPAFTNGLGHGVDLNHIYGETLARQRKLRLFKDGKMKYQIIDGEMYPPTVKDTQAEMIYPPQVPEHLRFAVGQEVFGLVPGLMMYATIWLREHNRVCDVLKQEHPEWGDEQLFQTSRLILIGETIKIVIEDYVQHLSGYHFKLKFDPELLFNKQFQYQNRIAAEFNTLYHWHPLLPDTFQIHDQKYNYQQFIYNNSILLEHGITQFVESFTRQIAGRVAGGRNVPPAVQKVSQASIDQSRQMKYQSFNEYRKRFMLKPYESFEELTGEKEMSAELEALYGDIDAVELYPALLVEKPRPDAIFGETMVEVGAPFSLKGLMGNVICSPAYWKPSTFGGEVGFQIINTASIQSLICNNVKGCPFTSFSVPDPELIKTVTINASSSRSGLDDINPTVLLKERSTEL
Chain of COX-1 (P05979 25-600 limits assumed): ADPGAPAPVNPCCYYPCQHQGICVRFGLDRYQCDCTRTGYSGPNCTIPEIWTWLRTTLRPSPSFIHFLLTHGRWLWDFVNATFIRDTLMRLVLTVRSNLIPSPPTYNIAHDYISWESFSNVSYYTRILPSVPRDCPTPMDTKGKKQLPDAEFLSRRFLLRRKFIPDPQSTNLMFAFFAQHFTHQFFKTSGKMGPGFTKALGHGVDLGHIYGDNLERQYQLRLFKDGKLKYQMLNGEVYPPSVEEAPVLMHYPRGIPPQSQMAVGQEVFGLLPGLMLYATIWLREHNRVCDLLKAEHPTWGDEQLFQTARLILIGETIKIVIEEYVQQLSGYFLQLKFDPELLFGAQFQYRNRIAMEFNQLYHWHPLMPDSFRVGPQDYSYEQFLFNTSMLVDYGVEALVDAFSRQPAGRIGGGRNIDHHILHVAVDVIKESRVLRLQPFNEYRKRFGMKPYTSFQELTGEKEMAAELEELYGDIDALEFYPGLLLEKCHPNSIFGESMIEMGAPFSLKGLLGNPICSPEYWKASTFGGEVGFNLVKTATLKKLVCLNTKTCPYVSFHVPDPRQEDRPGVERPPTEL

For the compound `COc1ccc(CN(Cc2ccc(F)cc2)CC2CCCO2)cc1CO` (stereo not drawn) [Compound 1], the “SI (selectivity index)” value in experiment [1] is 36.3. Moreover, the half-maximal inhibitory concentration (IC50) (usually the point on the concentration scale where inhibition reaches its midpoint) amounted to 0.21 ± 0.01 µM in experiment [1] and 7.62 ± 0.05 µM in experiment [2].

In the case of `COc1cccc(-c2nn(-c3ccccc3)cc2CN(C)CCc2cn[nH]c2)c1` [Compound 2, N-{[3-(3-methoxyphenyl)-1-phenyl-1H-pyrazol-4-yl]methyl}-N-methyl-2-(1H-pyrazol-4-yl)ethanamine], the “SI (selectivity index)” value in experiment [1] is 132.64. Moreover, the 50% inhibitory concentration (IC50) in experiment [1] was 0.08 ± 0.009 µM; in experiment [2] it was 10.6 ± 0.33 µM.

On to `O=C(O)CC1COCCN1Cc1cccc(-c2ccccn2)c1` (stereo not drawn) [Compound 3, {4-[3-(2-pyridinyl)benzyl]-3-morpholinyl}acetic acid], for which the “SI (selectivity index)” value in experiment [1] is listed as 190.88. Further, the IC50 in experiment [1] worked out at 0.06 ± 0.075 µM; in experiment [2], 11.5 ± 0.13 µM.

For `O=C(O)COc1ccc(Cl)cc1C1CC(=O)Nc2cc3[nH]ncc3cc21` (stereo not drawn) [Compound 4, [4-chloro-2-(7-oxo-5,6,7,8-tetrahydro-1H-pyrazole[4,3-g]quinoline-5-yl)phenoxy]acetic acid], in experiment [1], the “SI (selectivity index)” value was 95.068 and the IC50 was 0.097 ± 0.015 µM. This compound yielded an IC50 in experiment [2] of 9.19 ± 0.046 µM.
